ChEMBL document CHEMBL1145642, “Farnesyl pyrophosphate synthase enantiospecificity with a chiral risedronate analog, [6,7-dihydro-5H-cyclopenta[c]pyridin-7-yl(hydroxy)methylene]bis(phosphonic acid) (NE-10501): Synthetic, structural, and modeling studies” (Bioorg Med Chem Lett, 2008)
pIC50: −log10 of the molar value.

Molecular target: T1, Farnesyl pyrophosphate synthase (Homo sapiens, UniProt P14324)
T1 sequence (P14324 whole entry): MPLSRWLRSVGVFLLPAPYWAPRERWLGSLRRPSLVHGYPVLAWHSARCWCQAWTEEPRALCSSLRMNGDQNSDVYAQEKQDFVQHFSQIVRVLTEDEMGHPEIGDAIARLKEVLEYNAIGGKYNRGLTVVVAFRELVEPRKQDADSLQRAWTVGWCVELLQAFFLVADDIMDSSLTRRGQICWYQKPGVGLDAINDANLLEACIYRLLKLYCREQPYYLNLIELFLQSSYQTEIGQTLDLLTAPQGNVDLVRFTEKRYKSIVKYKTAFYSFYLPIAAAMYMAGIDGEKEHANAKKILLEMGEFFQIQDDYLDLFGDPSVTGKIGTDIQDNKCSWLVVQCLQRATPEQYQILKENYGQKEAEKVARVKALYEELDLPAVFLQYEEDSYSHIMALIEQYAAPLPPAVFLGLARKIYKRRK

`O=P(O)(O)C(O)(C1CCc2ccncc21)P(=O)(O)O` (stereo unspecified) was tested, and the pIC50 was 6.20.
